How the values were obtained:
MC4 = biological target: T1, MC4 (Homo sapiens, UniProt P32245); assay: GPCR radioligand binding (RLB) assay, melanocortin MC4, [125I]NDP-αMSH; settings: 10 micromolar; Example Library 4
T1 construct: purchased Perkin Elmer BioSignal; host or cells: HEK 293
In short: (§1)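 Competition binding against radioligand ([125I]NDP-αMSH for MC4, [125I]SST-14 for SST5) on membranes of HEK 293 cells carrying the human receptor; buffer and incubation time optimized per receptor. Filtration through 0.5% PEI-treated glass fiber, washing, then scintillation counting.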

SST5 = biological target: T2, SST5 (Homo sapiens, UniProt P35346); assay: GPCR radioligand binding (RLB) assay, somatostatin SST5, [125I]SST-14; settings: 10 micromolar; Example Library 4
T2 construct: purchased Perkin Elmer BioSignal; host or cells: HEK 293
In short: as §1

T1 sequence (P32245 whole entry): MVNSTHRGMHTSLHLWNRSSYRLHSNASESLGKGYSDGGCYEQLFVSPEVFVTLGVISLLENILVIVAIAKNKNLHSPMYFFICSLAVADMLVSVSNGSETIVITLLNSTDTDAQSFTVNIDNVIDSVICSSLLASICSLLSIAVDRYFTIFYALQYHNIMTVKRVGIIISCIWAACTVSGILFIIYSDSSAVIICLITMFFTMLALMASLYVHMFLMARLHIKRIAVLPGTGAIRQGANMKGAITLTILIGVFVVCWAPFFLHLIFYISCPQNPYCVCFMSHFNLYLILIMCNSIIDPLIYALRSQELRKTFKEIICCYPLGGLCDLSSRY
T2 sequence (P35346 whole entry): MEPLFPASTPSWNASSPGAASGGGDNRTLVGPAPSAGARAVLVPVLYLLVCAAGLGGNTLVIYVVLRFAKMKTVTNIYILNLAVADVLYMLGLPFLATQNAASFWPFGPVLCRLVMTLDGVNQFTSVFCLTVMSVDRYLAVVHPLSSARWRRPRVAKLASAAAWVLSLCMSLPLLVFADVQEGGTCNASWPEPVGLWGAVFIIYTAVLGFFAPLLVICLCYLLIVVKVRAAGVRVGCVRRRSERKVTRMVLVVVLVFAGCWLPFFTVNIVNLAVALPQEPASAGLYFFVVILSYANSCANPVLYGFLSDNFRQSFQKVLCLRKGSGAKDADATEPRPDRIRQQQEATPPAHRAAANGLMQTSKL

SMILES	MC4 inhibition at 10 micromolar (MC4)	SSTS inhibition at 10 micromolar (SST5)
COCC1OC(OCc2ccccc2)C(NC(=O)CN)C(OCc2ccc(-c3ccccc3)cc2)C1O (centres unmarked) [Compound 225]	+ (Indicates inhibition greater than . . . 50%)	+ (Indicates inhibition greater than . . . 50%)
COCC1OC(OCc2ccccc2)C(NC(=O)CNC(=N)N)C(OCc2ccc(-c3ccccc3)cc2)C1O (centres unmarked) [Compound 226]	+ (Indicates inhibition greater than . . . 50%)	+ (Indicates inhibition greater than . . . 50%)
COCC1OC(OCc2ccccc2)C(NC(=O)CCN)C(OCc2ccc(-c3ccccc3)cc2)C1O (centres unmarked) [Compound 227]	+ (Indicates inhibition greater than . . . 50%)	+ (Indicates inhibition greater than . . . 50%)
COCC1OC(OCc2ccccc2)C(NC(=O)CCNC(=N)N)C(OCc2ccc(-c3ccccc3)cc2)C1O (centres unmarked) [Compound 228]	+ (Indicates inhibition greater than . . . 50%)	+ (Indicates inhibition greater than . . . 50%)
COCC1OC(OCc2ccccc2)C(NC(=O)CCCN)C(OCc2ccc(-c3ccccc3)cc2)C1O (centres unmarked) [Compound 229]	+ (Indicates inhibition greater than . . . 50%)	+ (Indicates inhibition greater than . . . 50%)
COCC1OC(OCc2ccccc2)C(NC(=O)CCCNC(=N)N)C(OCc2ccc(-c3ccccc3)cc2)C1O (centres unmarked) [Compound 230]	+ (Indicates inhibition greater than . . . 50%)	+ (Indicates inhibition greater than . . . 50%)
COCC1OC(OCc2ccccc2)C(NC(=O)CNC(=N)N)C(OCc2ccc3ccccc3c2)C1O (centres unmarked) [Compound 232]	+ (Indicates inhibition greater than . . . 50%)	+ (Indicates inhibition greater than . . . 50%)
COCC1OC(OCc2ccccc2)C(NC(=O)CCN)C(OCc2ccc3ccccc3c2)C1O (centres unmarked) [Compound 233]	+ (Indicates inhibition greater than . . . 50%)	+ (Indicates inhibition greater than . . . 50%)
COCC1OC(OCc2ccccc2)C(NC(=O)CCNC(=N)N)C(OCc2ccc3ccccc3c2)C1O (centres unmarked) [Compound 234]	+ (Indicates inhibition greater than . . . 50%)	+ (Indicates inhibition greater than . . . 50%)
COCC1OC(OCc2ccccc2)C(NC(=O)CCCN)C(OCc2ccc3ccccc3c2)C1O (centres unmarked) [Compound 235]	+ (Indicates inhibition greater than . . . 50%)	+ (Indicates inhibition greater than . . . 50%)
COCC1OC(OCc2ccccc2)C(NC(=O)CCCNC(=N)N)C(OCc2ccc3ccccc3c2)C1O (centres unmarked) [Compound 236]	+ (Indicates inhibition greater than . . . 50%)	+ (Indicates inhibition greater than . . . 50%)
COCC1OC(OCc2ccc(Cl)cc2)C(NC(=O)CNC(=N)N)C(OCc2ccccc2)C1O (centres unmarked) [Compound 237]	+ (Indicates inhibition greater than . . . 50%)	+ (Indicates inhibition greater than . . . 50%)
COCC1OC(OCc2ccc(Cl)cc2)C(NC(=O)CCNC(=N)N)C(OCc2ccccc2)C1O (centres unmarked) [Compound 239]	+ (Indicates inhibition greater than . . . 50%)	+ (Indicates inhibition greater than . . . 50%)
COCC1OC(OCc2ccc(Cl)cc2)C(NC(=O)CCCNC(=N)N)C(OCc2ccccc2)C1O (centres unmarked) [Compound 241]	+ (Indicates inhibition greater than . . . 50%)	+ (Indicates inhibition greater than . . . 50%)
COCC1OC(OCc2ccc(Cl)cc2)C(NC(=O)CN)C(OCc2ccc(Cl)cc2)C1O (centres unmarked) [Compound 242]	+ (Indicates inhibition greater than . . . 50%)	+ (Indicates inhibition greater than . . . 50%)
COCC1OC(OCc2ccc(Cl)cc2)C(NC(=O)CNC(=N)N)C(OCc2ccc(Cl)cc2)C1O (centres unmarked) [Compound 243]	+ (Indicates inhibition greater than . . . 50%)	+ (Indicates inhibition greater than . . . 50%)
COCC1OC(OCc2ccc(Cl)cc2)C(NC(=O)CCN)C(OCc2ccc(Cl)cc2)C1O (centres unmarked) [Compound 244]	+ (Indicates inhibition greater than . . . 50%)	+ (Indicates inhibition greater than . . . 50%)

SMILES	MC4 inhibition at 10 micromolar (MC4)	SSTS inhibition at 10 micromolar (SST5)
COCC1OC(OCc2ccc(Cl)cc2)C(NC(=O)CCNC(=N)N)C(OCc2ccc(Cl)cc2)C1O (centres unmarked) [Compound 245]	+ (Indicates inhibition greater than . . . 50%)	+ (Indicates inhibition greater than . . . 50%)
COCC1OC(OCc2ccc(Cl)cc2)C(NC(=O)CCCN)C(OCc2ccc(Cl)cc2)C1O (centres unmarked) [Compound 246]	+ (Indicates inhibition greater than . . . 50%)	+ (Indicates inhibition greater than . . . 50%)
COCC1OC(OCc2ccc(Cl)cc2)C(NC(=O)CCCNC(=N)N)C(OCc2ccc(Cl)cc2)C1O (centres unmarked) [Compound 247]	+ (Indicates inhibition greater than . . . 50%)	+ (Indicates inhibition greater than . . . 50%)
COCC1OC(OCc2ccc(Cl)cc2)C(NC(=O)CN)C(OCc2ccc(-c3ccccc3)cc2)C1O (centres unmarked) [Compound 248]	+ (Indicates inhibition greater than . . . 50%)	+ (Indicates inhibition greater than . . . 50%)
COCC1OC(OCc2ccc(Cl)cc2)C(NC(=O)CNC(=N)N)C(OCc2ccc(-c3ccccc3)cc2)C1O (centres unmarked) [Compound 249]	+ (Indicates inhibition greater than . . . 50%)	+ (Indicates inhibition greater than . . . 50%)
COCC1OC(OCc2ccc(Cl)cc2)C(NC(=O)CCN)C(OCc2ccc(-c3ccccc3)cc2)C1O (centres unmarked) [Compound 250]	+ (Indicates inhibition greater than . . . 50%)	+ (Indicates inhibition greater than . . . 50%)
COCC1OC(OCc2ccc(Cl)cc2)C(NC(=O)CCNC(=N)N)C(OCc2ccc(-c3ccccc3)cc2)C1O (centres unmarked) [Compound 251]	+ (Indicates inhibition greater than . . . 50%)	+ (Indicates inhibition greater than . . . 50%)
COCC1OC(OCc2ccc(Cl)cc2)C(NC(=O)CCCN)C(OCc2ccc(-c3ccccc3)cc2)C1O (centres unmarked) [Compound 252]	+ (Indicates inhibition greater than . . . 50%)	+ (Indicates inhibition greater than . . . 50%)
COCC1OC(OCc2ccc(Cl)cc2)C(NC(=O)CCCNC(=N)N)C(OCc2ccc(-c3ccccc3)cc2)C1O (centres unmarked) [Compound 253]	+ (Indicates inhibition greater than . . . 50%)	+ (Indicates inhibition greater than . . . 50%)
COCC1OC(OCc2ccc(Cl)cc2)C(NC(=O)CN)C(OCc2ccc3ccccc3c2)C1O (centres unmarked) [Compound 254]	+ (Indicates inhibition greater than . . . 50%)	+ (Indicates inhibition greater than . . . 50%)
COCC1OC(OCc2ccc(Cl)cc2)C(NC(=O)CNC(=N)N)C(OCc2ccc3ccccc3c2)C1O (centres unmarked) [Compound 255]	+ (Indicates inhibition greater than . . . 50%)	+ (Indicates inhibition greater than . . . 50%)
COCC1OC(OCc2ccc(Cl)cc2)C(NC(=O)CCN)C(OCc2ccc3ccccc3c2)C1O (centres unmarked) [Compound 256]	+ (Indicates inhibition greater than . . . 50%)	+ (Indicates inhibition greater than . . . 50%)
COCC1OC(OCc2ccc(Cl)cc2)C(NC(=O)CCNC(=N)N)C(OCc2ccc3ccccc3c2)C1O (centres unmarked) [Compound 257]	+ (Indicates inhibition greater than . . . 50%)	+ (Indicates inhibition greater than . . . 50%)
COCC1OC(OCc2ccc(Cl)cc2)C(NC(=O)CCCN)C(OCc2ccc3ccccc3c2)C1O (centres unmarked) [Compound 258]	+ (Indicates inhibition greater than . . . 50%)	+ (Indicates inhibition greater than . . . 50%)
COCC1OC(OCc2ccc(Cl)cc2)C(NC(=O)CCCNC(=N)N)C(OCc2ccc3ccccc3c2)C1O (centres unmarked) [Compound 259]	+ (Indicates inhibition greater than . . . 50%)	+ (Indicates inhibition greater than . . . 50%)
COCC1OC(OCCc2ccccc2)C(NC(=O)CCNC(=N)N)C(OCc2ccccc2)C1O (centres unmarked) [Compound 263]	+ (Indicates inhibition greater than . . . 50%)	+ (Indicates inhibition greater than . . . 50%)
COCC1OC(OCCc2ccccc2)C(NC(=O)CCCNC(=N)N)C(OCc2ccccc2)C1O (centres unmarked) [Compound 265]	+ (Indicates inhibition greater than . . . 50%)	+ (Indicates inhibition greater than . . . 50%)
